In patent US4742172A, “Intermediates for synthesizing pharmaceutically active 3,7-diazabicyclo-(3,3,1)-nonane compounds” (Kali-Chemie Pharma GmbH, priority 1982, dated 1988):

Assays:
[1] = tested on: right atrium cordis of guinea pigs; assay: Heart rate of the spontaneously beating, isolated right atrium cordis; parameters: species or system female albino Pirbright-white guinea pigs; settings: Cavia porcellus, 20 min; 20 minutes after administration; administered as di-tartrate; read-out: FRQ 75% (concentration decreasing heart rate to 75% of initial value)
Description: The direct effect of the active compound on the heart rate (FPQ) was tested on the spontaneously beating, isolated right atrium cordis of female albino Pirbright-white guinea pigs (GP) of the weight class between 300 g. and 400 g. In Table 3 there is given, as FPQ 75%, the concentration in μmole/l. by which a decrease of the heart rate to 75% of the initial value is achieved 20 minutes after administration of the compound to be tested.

[2] = tested on: left atrium cordis of guinea pigs; assay: Functional refractory period and contractile force of the electrically stimulated left atrium cordis (paired stimulation, method of Govier); parameters: species or system female albino Pirbright-white guinea pigs; settings: for EC (125%) / IC25: Cavia porcellus, administered as di-tartrate; for EC (125%): 0.3 h, 18 minutes after administration, read-out: FRP 125% (concentration prolonging functional refractory period to 125%); for IC25: left atrium, read-out: F 75% (concentration reducing contractile force to 75% of initial value); for quotient F 75%/FRP 125%: therapeutic index of the anti-arrhythmic action on the isolated organ
Description: 148, No. 1, pages 100-105 (1965). All anti-arrhythmic drugs which at present are used in therapy and which differ in their chemical structure are distinguished by being able to prolong the functional refractory period. In addition thereto said method permits to detect the effects of compounds on the contractile force of the myocardium. […] Said quotient supplies information regarding the therapeutic index of the anti-arrhythmic action of a compound on the isolated organ. See P. Greef in Verhandlung der Deutschen Gesellschaft fuer Kreislaufforschung vol. 35, pages 88-97 (1969).

anesthetized rats = assay: Effect on heart rate, systolic blood pressure and double product (myocardial oxygen consumption, method of Neill); assay type: in vivo; settings: administered as ditartrate; for Change DP: vs initial value
Description: The influence of the active compounds according to the present invention on myocardial oxygen consumption has been investigated in animal models and determined according to the method of Neill as described by W. A. Neill, H. H. Levine, R. J. Wagman, and P. Gorlin in Circulation Research, Vol. 12, page 163 (1963). The blood circulation measurements which are required for these tests, namely, systolic blood pressure and heart rate, were determined according to the design of experimental procedure as described by G. Buschmann, W. Schumacher, R. Budden, and U. G. Kuehl in J. Cardiovasc. Pharmacol., Vol. 2, pages 777-795 (1980). As is evident from the following Table 1, the active compound reduces the product* of heart rate and systolic blood pressure. Thus, the tested compound reduces the consumption of oxygen to be supplied to the heart. This effect is observed in intravenous administration (i.v.) as well as on intraduodenal administration (i.d.) and is to be attributed to the action of the compound tested.
Effect upon heart rate (FRQ), systolic blood pressure (Ps)
and the double product (DP) determined on anesthetized rats

in vivo = settings: mouse, po, peroral administration, mice
[3] = tested on: aconitine-induced ventricular extrasystoles in rats; assay: Anti-arrhythmic activity, aconitine test in rats (method of Raschak); assay type: in vivo, male Wistar rats; settings: for Change in time to occurrence of ES: vs vehicle control
Description: When administering aconitine to rats by continuous intravenous infusion, there are observed in the electrocardiogram considerable disturbances in the heartbeat, such as, for instance, ventricular extrasystoles. The tested animals were male Wistar rats of the weight class between 250 g. and 350 g. The influence of an active compound according to the present invention upon such rats after an aconitine infusion was determined according to the method of Raschak as described by M. Raschak in Arzneim. Forsch. vol. 25, No. 4, pages 639-641 (1975). […] The active compound was administered intravenously in the form of an isotonic sodium chloride solution, i.e. the vehicle, in a dose of 6.0 μmole/kg. The dose administered is one twenthieth of the lethal dose (LD50) as determined on mice. […] After intravenous administration of the active compound to be tested and of the control solution, the aconitine solution was administered by infusion in an amount which was constant per time unit. The period of time was measured within which ventricular extrasystoles (ES) were observed. Said period of time, in minutes, is given in Table 2 as well as the difference in the period of time observed on administering the test compound and the control solution.
One of the active compounds tested is the compound of Example 3, No. 302, i.e., N,N-di-n-butyl-9,9-dimethyl-3,7-diaza bicyclo-(3,3,1)-nonane as described hereinafter. There are also given the results obtained by testing an equitoxic amount of the drug known under the trademark "Lidocain", i.e., 2-(diethylamino)-N-(2,6-dimethyl phenyl)-acetamide.
Anti-arrhythmic activity determined by the […]

Row | Compound | IC25 [1] [µM] | EC (125%) [2] [µM] | IC25 [2] [µM] | quotient F 75%/FRP 125% [2] | DP (double product of heart rate and systolic blood pressure) (anesthetized rats; 13.5 μmole/kg i.v., initial value 39) [mm.Hg/min. × 1000] | Ps (systolic blood pressure) (anesthetized rats; 13.5 μmole/kg i.v., initial value 104) [mm.Hg] | FRQ (heart rate) (anesthetized rats; 13.5 μmole/kg i.v., initial value 372) [min⁻¹] | Change DP (anesthetized rats; 13.5 μmole/kg i.v.) [%] | DP (double product of heart rate and systolic blood pressure) (anesthetized rats; 100 μmole/kg i.d., initial value 41) [mm.Hg/min. × 1000] | Ps (systolic blood pressure) (anesthetized rats; 100 μmole/kg i.d., initial value 101) [mm.Hg] | FRQ (heart rate) (anesthetized rats; 100 μmole/kg i.d., initial value 406) [min⁻¹] | Change DP (anesthetized rats; 100 μmole/kg i.d.) [%] | LD50 (in vivo) [µmol/kg] | Time to occurrence of ES (ventricular extrasystoles) ([3]; 6.0 μmole/kg i.v., vehicle control 6.7 min, administered as di-tartrate) [min] | Change in time to occurrence of ES ([3]; 6.0 μmole/kg i.v., administered as di-tartrate) | Time to occurrence of ES (ventricular extrasystoles) ([3]; 10.0 μmole/kg i.v. (equitoxic amount), vehicle control 6.3 min) [min] | Change in time to occurrence of ES ([3]; 10.0 μmole/kg i.v. (equitoxic amount))
1 | CN1CC2CN(C)CC(C1)C2(C)C [Comparative compound, N,N',9,9-tetramethyl diaza bicyclo-(3,3,1)-nonane, reference compound] | ~215 | 122 | ~215 | about 2 | – | – | – | – | – | – | – | – | – | – | – | – | –
2 | CCCCN1CC2CN(CCCC)CC(C1)C2(C)C [Example 3, No. 302, N,N'-di-n-butyl-9,9-dimethyl-3,7-diaza bicyclo-(3,3,1)-nonane] | 3 | 1 | 104 | 104 | 25 | 147 | 174 | -36 | 30 | 125 | 238 | -27 | 1040 | 8.2 | +23% | – | –
3 | CCN(CC)CC(=O)Nc1c(C)cccc1C [Lidocain, 2-(diethylamino)-N-(2,6-dimethylphenyl)-acetamide, reference compound] | – | – | – | – | – | – | – | – | – | – | – | – | – | – | – | 6.6 | +5%
